Assay results taken from patent US20220362122A1, “Hair Treatment Compositions With Amine Derivatives” (ELC Management LLC, priority 2021, published 2022).
Entries after “also recorded” stand apart in the source; their conditions may differ. Read-outs that look alike come from different tables or passages of the source.

How the values were obtained:
[1] = alkalizer composition; 22° C., T-F spindle, 6 rpm
[2] = alkalizer composition
[3] = for Lifting level normalized to NH3•H2O / Relative lifting level in percentage (LVirgin-LAlkalizer)/(LVirgin-LNaOH) / ΔL (change in color lifting) LVirgin-LAlkalizer: single alkalizer compositions, Table 5; for L* value: mole ratio DMAMP/NH3, virgin hair 20.3; for L Value: single alkalizer composition + volume 40 oxidizer developer on hair tresses, 37° C., 45 minutes, virgin 19
[4] = active component; cited from earlier work
[5] = pH of alkalizer composition
[6] = Tensile strength: break stress of treated hair fibers; conditions: hair fibers after alkalizer composition + oxidant
keratin in hair [7] = assay: DSC analysis: keratin denaturation temperature of treated hair
outer root sheath cells = assay: MultiTox-Fluor Multiplex Cytotoxicity Assay, outer root sheath cells; format: cell-based; conditions: for toxicity to the cell, comparison in words: outer root sheath cells
Description: (§1) The effects of alkalizer compositions on outer root sheath cells and on keratinocytes was evaluated. The MultiTox-Fluor Multiplex Cytotoxicity Assay (Promega Corp., Madison, Wis.) simultaneously measures two protease activities: one is a marker of cell viability, and the other is a marker of cytotoxicity. In the assays, the responses of outer root sheath cells and keratinocytes to various concentrations of alkalizers were measured, and IC50, the concentration that provokes a mid-height response (midway between the baseline response and maximal response), was determined.

keratinocytes = assay: MultiTox-Fluor Multiplex Cytotoxicity Assay, keratinocytes; format: cell-based; conditions: for toxicity to the cell, comparison in words: keratinocytes
Description: as §1

keratin in hair [8] = tested on: keratin in hair
[9] = single alkalizer compositions, Table 4A
[10] = alkalizer composition: Table 2 base + alkalizer, same molar percentage

**Q.** For CN(C)CCCO [DMAP, 3-Dimethyl-amino-1-propanol], which “Viscosity (cP × 10^5)” value [1] is on record?
**A.** 2.77 cP × 10^5

**Q.** What about the “Alkalinity” value [2] of the same molecule?
**A.** 2.32 mL/g

**Q.** And the “Lifting level normalized to NH3•H2O” value [3]?
**A.** 0.53

**Q.** And the “Relative lifting level in percentage (LVirgin-LAlkalizer)/(LVirgin-LNaOH)” value [3]?
**A.** 45.45%

**Q.** What about the “ΔL (change in color lifting) LVirgin-LAlkalizer” value [3] of the same molecule?
**A.** −8

**Q.** What about the “lifting of natural hair color, comparison in words” value ([3]; single alkalizer/oxidizer mixtures) of the same molecule?
**A.** performed significantly less well than ammonium hydroxide

**Q.** And the pKa [4]?
**A.** 9.27

**Q.** What about the pH [5] of the same molecule?
**A.** 10.58

**Q.** What about the “break stress / fiber damage, comparison in words” value [6] of the same molecule?
**A.** cause a similar amount of damage or less damage than their primary amine analogs

**Q.** What about the “hair damage / denaturation temperature, comparison in words” value (keratin in hair [7]; DSC, single alkalizer compositions) of the same molecule?
**A.** performed the closest to ammonium hydroxide; also recorded: less damaging to hair than the ammonium hydroxide composition; also recorded: a better performer than ammonia

**Q.** And the “Denaturation Temperature (° C.)” value (keratin in hair [7]; single alkalizer composition + volume 40 (12%) oxidizer developer on hair tresses, 37° C., 45 minutes, virgin hair 150.42)?
**A.** 147.80 °C

**Q.** And the “% Relative damage level compared to NaOH (TVirgin-TAlkalizer)/(TVirgin-TNaOH)” value (keratin in hair [7]; [9])?
**A.** 18.33%

**Q.** And the “Damage level normalized to NH3•H2O” value (keratin in hair [7]; [9])?
**A.** 0.94

**Q.** And the “ΔT (change in denaturation temperature) TVirgin-TAlkalizer” value (keratin in hair [7]; [9])?
**A.** 2.62

**Q.** For CN(C)C(C)(C)CO [DMAMP, 2-Dimethyl-amino-2-methyl-1-propanol], which IC50 (outer root sheath cells; greater IC50 = less stress on the cells, unit inferred) is on record?
**A.** 18 mM

**Q.** And the “toxicity to the cell, comparison in words” value (outer root sheath cells)?
**A.** more toxic than ammonium hydroxide, but less toxic than conventional replacement AMP; also recorded: more toxic to the cell than ammonium hydroxide

**Q.** And the IC50 (keratinocytes; Keratinocyte, greater IC50 = less stress on the cells, unit inferred)?
**A.** 33 mM

**Q.** And the “toxicity to the cell, comparison in words” value (keratinocytes)?
**A.** more toxic than ammonium hydroxide, but less toxic than conventional replacement AMP; also recorded: less toxic to keratinocytes than MEA; also recorded: more toxic to the cell than ammonium hydroxide

**Q.** What about the “Viscosity (cP × 10^5)” value [1] of the same molecule?
**A.** 0.211 cP × 10^5

**Q.** What about the “Alkalinity” value [2] of the same molecule?
**A.** 2.38 mL/g

**Q.** What about the “% Relative damage level compared to NaOH (TVirgin-TAlkalizer)/(TVirgin-TNaOH)” value (keratin in hair [8]) of the same molecule?
**A.** 18.05%

**Q.** And the “Damage level normalized to NH3•H2O” value (keratin in hair [8])?
**A.** 0.92

**Q.** And the “denaturation temperature in binary combinations, in words” value (keratin in hair [8])?
**A.** raised the denaturation temperature

**Q.** And the “hair damage / denaturation temperature, comparison in words” value (keratin in hair [8])?
**A.** less damaging to hair than the ammonium hydroxide composition

**Q.** What about the “ΔT (change in denaturation temperature) TVirgin-TAlkalizer” value (keratin in hair [8]) of the same molecule?
**A.** 2.58

**Q.** What about the “L* value” ([3]; Table 8A DMAMP-NH3 series) of the same molecule?
**A.** 26

**Q.** And the “L* value” ([3]; Table 8B DMAMP-NH3 in low DMAMP percentages)?
**A.** 24.9

**Q.** What about the “L Value” [3] of the same molecule?
**A.** 26

**Q.** What about the “Lifting level normalized to NH3•H2O” value [3] of the same molecule?
**A.** 0.47

**Q.** What about the “Relative lifting level in percentage (LVirgin-LAlkalizer)/(LVirgin-LNaOH)” value [3] of the same molecule?
**A.** 39.77%

**Q.** And the “ΔL (change in color lifting) LVirgin-LAlkalizer” value [3]?
**A.** −7

**Q.** And the pH [5, 10]?
**A.** 11.15

**Q.** What does the source list for CN(C)CC(O)CO (stereo not drawn) [DMAPD, 3-(dimethylamino)-1,2-propanediol]?
**A.** toxicity to the cell, comparison in words (outer root sheath cells): significantly less toxic than ammonium hydroxide; toxicity to the cell, comparison in words (keratinocytes): significantly less toxic than ammonium hydroxide; Viscosity (cP × 10^5) [1]: 3.23 cP × 10^5; Alkalinity [2]: 2.57 mL/g; % Relative damage level compared to NaOH (TVirgin-TAlkalizer)/(TVirgin-TNaOH) (keratin in hair [8]): 6.72%; Damage level normalized to NH3•H2O (keratin in hair [8]): 0.34; hair damage / denaturation temperature, comparison in words (keratin in hair [8]): less damaging to hair than the ammonium hydroxide composition; ΔT (change in denaturation temperature) TVirgin-TAlkalizer (keratin in hair [8]): 0.96; L Value [3]: 25.5; Lifting level normalized to NH3•H2O [3]: 0.43; Relative lifting level in percentage (LVirgin-LAlkalizer)/(LVirgin-LNaOH) [3]: 36.93%; ΔL (change in color lifting) LVirgin-LAlkalizer [3]: −6.5; pH [5, 10]: 10.37
